System: cotton aphids (Aphis gossypil)
Assay: Reproduction inhibitory activity against cotton aphids
Assay type: in vivo
Conditions: 10 ppm; sprayed potted cotton plants infested with 1st instar nymphs, one week after spraying
Experimental: Reproduction inhibitory activity against cotton aphids
An emulsifiable concentrate prepared according to Formulation Example 1 was diluted with water to make a predetermined concentration. The dilution was sprayed onto potted cotton plants (in a stage of 8-9 days after sowing) infested with 1st instar nymphs of cotton aphids (Aphis gossypil) at a rate of 30 ml/2 pots on a turning table. Before spraying and one week after spraying, the humber of nymphs and aduts was counted, and a reproduction inhibitory index was expressed by the following equation: [formula] wherein the judgement of activity is based on the following standard: A: less than 1 (excellent effect)

| SMILES | reproduction inhibitory index |
| --- | --- |
| O=C(NCCOc1ccc(Oc2cc(F)cc(F)c2)cc1Cl)C1CC1 [Compound No. 1, N-{2-[2-Chloro-4-(3,5-difluorophenoxy)phenoxy]ethyl}-cyclopropane carboxyamide] | A (less than 1 (excellent effect)) |

System: brown rice planthopper (Nilaparvata lugens)
Assay: Metamorphosis inhibitory activity against brown rice planthopper nymphs
Assay type: in vivo
Conditions: 0.05 ppm; sprayed rice plants, 3rd instar nymphs, after 10 days
Experimental: Metamorphosis inhibitory activity against brown rice planthopper nymphs
An emulsifiable concentrate prepared according to Formulation Example 1 was diluted with water to make a predetermined concentration. The dilution was sprayed onto rice plants cultivated in polyethylene cups at a rate of 20 ml/2 pots on a turning table. After air-drying, the plants were infested with about ten 3rd instar nymphs of brown rice planthopper (Nilaparvata lugens). After 10 days, the number of normal adults was counted to obtain an emergence inhibitory rate.

| SMILES | Inhibitory rate (emergence inhibitory rate) [%] |
| --- | --- |
| CCC(C)Oc1ccc(OCCNC(=S)C2CC2)c(Cl)c1 (stereo not drawn) [compound 11, N-{2-[2-Chloro-4-(1-methylpropoxy)phenoxy]ethyl}-cyclopropane thiocarboxyamide] | 100 |

Same assay, conditions: 5 ppm; sprayed rice plants, 3rd instar nymphs, after 10 days

| SMILES | Inhibitory rate (emergence inhibitory rate) [%] |
| --- | --- |
| CCC(C)Oc1ccc(OCCNC(=S)C2CC2)c(Cl)c1 (stereo not drawn) [compound 11, N-{2-[2-Chloro-4-(1-methylpropoxy)phenoxy]ethyl}-cyclopropane thiocarboxyamide] | 100 |

Same assay, conditions: Nilaparvata lugens, 240 h; 0.05 ppm; sprayed rice plants, 3rd instar nymphs, after 10 days; read-out: Inhibitory rate (emergence inhibitory rate)

| SMILES | inhibition at 0.05 ppm [%] |
| --- | --- |
| CCC(C)Oc1ccc(OCCNC(=O)C2CC2)c(Cl)c1 (stereo not drawn) [Compound No. 14, N-{2-[2-Chloro-4-(1-methylpropoxy)phenoxy]ethyl}-cyclopropane carboxyamide] | 100 |
| O=C(NCCOc1ccc(Oc2cccc(F)c2)cc1Cl)C1CC1 [compound 5, N-{2-[2-Chloro-4-(3-fluorophenoxy)phenoxy]ethyl}-cyclopropane carboxyamide] | 100 |
| O=C(NCCOc1ccc(Oc2cccc(Cl)c2)cc1Cl)C1CC1 [compound 6, N-{2-[2-Chloro-4-(3-chlorophenoxy)phenoxy]ethyl}-cyclopropane carboxyamide] | 100 |
| CCC(CC)Cc1ccc(OCCNC(=O)C2CC2)c(Cl)c1 [compound 12, N-{2-[2-Chloro-4-(2-ethylbutyl)phenoxy]ethyl}-cyclopropane carboxyamide] | 100 |
| O=C(NCCOc1ccc(Oc2cc(F)cc(F)c2)cc1Cl)C1CC1 [Compound No. 1, N-{2-[2-Chloro-4-(3,5-difluorophenoxy)phenoxy]ethyl}-cyclopropane carboxyamide] | 100 |
| O=C(NCCOc1ccc(Cc2ccccc2)cc1Cl)C1CC1 [compound 13, N-[2-(4-Benzyl-2-chlorophenoxy)ethyl]-cyclopropane carboxyamide] | 100 |
| Fc1cc(F)cc(Oc2ccc(OCCNC(=S)C3CC3)c(Cl)c2)c1 [compound 4, N-{2-[2-Chloro-4-(3,5-difluorophenoxy)phenoxy]ethyl}-cyclopropane thiocarboxyamide] | 100 |
| O=C(NCCOc1cc(Oc2ccccc2)ccc1Cl)C1CC1 [compound 8, N-[2-(2-Chloro-5-phenoxyphenoxy)ethyl]-cyclopropane carboxyamide] | 100 |
| CC(C)COCc1ccc(OCCNC(=O)C2CC2)c(Cl)c1 [Compound No. 10, N-{2-[2-Chloro-4-(2-methylpropoxymethyl)phenoxy]ethyl}-cyclopropane carboxyamide] | 100 |
| S=C(NCCOc1ccc(Cc2ccccc2)cc1Cl)C1CC1 [Compound No. 3, N-[2-(4-Benzyl-2-chlorophenoxy)ethyl]-cyclopropane thiocarboxyamide] | 100 |

Same assay, conditions: Nilaparvata lugens, 240 h; 0.5 ppm; sprayed rice plants, 3rd instar nymphs, after 10 days; read-out: Inhibitory rate (emergence inhibitory rate)

| SMILES | inhibition at 0.5 ppm [%] |
| --- | --- |
| S=C(NCCOc1ccc(Oc2cccc(Cl)c2)cc1Cl)C1CC1 [compound 16, N-{2-[2-Chloro-4-(3-chlorophenoxy)phenoxy]ethyl}-cyclopropane thiocarboxyamide] | 100 |

Same assay, conditions: Nilaparvata lugens, 240 h; 5 ppm; sprayed rice plants, 3rd instar nymphs, after 10 days; read-out: Inhibitory rate (emergence inhibitory rate)

| SMILES | inhibition at 5 ppm [%] |
| --- | --- |
| CCC(C)Oc1ccc(OCCNC(=O)C2CC2)c(Cl)c1 (stereo not drawn) [Compound No. 14, N-{2-[2-Chloro-4-(1-methylpropoxy)phenoxy]ethyl}-cyclopropane carboxyamide] | 100 |
| O=C(NCCOc1ccc(Oc2cccc(F)c2)cc1Cl)C1CC1 [compound 5, N-{2-[2-Chloro-4-(3-fluorophenoxy)phenoxy]ethyl}-cyclopropane carboxyamide] | 100 |
| O=C(NCCOc1ccc(Oc2cccc(Cl)c2)cc1Cl)C1CC1 [compound 6, N-{2-[2-Chloro-4-(3-chlorophenoxy)phenoxy]ethyl}-cyclopropane carboxyamide] | 100 |
| O=C(NCCOc1ccc(Oc2ccc(F)cc2F)cc1Cl)C1CC1 [compound 7, N-{2-[2-Chloro-4-(2,4-difluorophenoxy)phenoxy]ethyl}-cyclopropane carboxyamide] | 100 |
| O=C(NCCOc1ccc(Oc2ccccc2)cc1Cl)C1CC1 [compound 15, N-[2-(2-Chloro-4-phenoxyphenoxy)ethyl]-cyclopropane carboxyamide] | 100 |
| CCC(CC)Cc1ccc(OCCNC(=O)C2CC2)c(Cl)c1 [compound 12, N-{2-[2-Chloro-4-(2-ethylbutyl)phenoxy]ethyl}-cyclopropane carboxyamide] | 100 |
| O=C(NCCOc1ccc(Oc2cc(F)cc(F)c2)cc1Cl)C1CC1 [Compound No. 1, N-{2-[2-Chloro-4-(3,5-difluorophenoxy)phenoxy]ethyl}-cyclopropane carboxyamide] | 100 |
| O=C(NCCOc1ccc(Cc2ccccc2)cc1Cl)C1CC1 [compound 13, N-[2-(4-Benzyl-2-chlorophenoxy)ethyl]-cyclopropane carboxyamide] | 100 |
| Fc1cc(F)cc(Oc2ccc(OCCNC(=S)C3CC3)c(Cl)c2)c1 [compound 4, N-{2-[2-Chloro-4-(3,5-difluorophenoxy)phenoxy]ethyl}-cyclopropane thiocarboxyamide] | 100 |
| O=C(NCCOc1cc(Oc2ccccc2)ccc1Cl)C1CC1 [compound 8, N-[2-(2-Chloro-5-phenoxyphenoxy)ethyl]-cyclopropane carboxyamide] | 100 |
| CC(C)COCc1ccc(OCCNC(=O)C2CC2)c(Cl)c1 [Compound No. 10, N-{2-[2-Chloro-4-(2-methylpropoxymethyl)phenoxy]ethyl}-cyclopropane carboxyamide] | 100 |
| S=C(NCCOc1ccc(Cc2ccccc2)cc1Cl)C1CC1 [Compound No. 3, N-[2-(4-Benzyl-2-chlorophenoxy)ethyl]-cyclopropane thiocarboxyamide] | 100 |
| O=C(NCCOc1ccc(Oc2ccccc2)cc1)C1CC1 [A, reference compound] | 0 |

From patent US5364966A, “Amide derivatives, their production processes and their compositions for the control of insect pests” (Sumitomo Chemical Company, Limited, priority 1991, dated 1994)
